Assay results reported in PMC7466261, “In Silico and In Vitro Analysis of Multifunctionality of Animal Food-Derived Peptides” (Foods, 2020).
Like-named read-outs stand apart in the source and are kept apart here. Where a SMILES comes first, the peptide text is derived from it. Where no end group is shown, it is not given here.

What was measured:
[1] = Oxygen radical absorbance capacity (ORAC)-FL assay; settings: mean ± SD
Experimental: An oxygen radical absorbance capacity (ORAC)-FL assay was used based on the protocol previously optimized. The reaction was performed at 37 °C in 75 mM phosphate buffer (pH 7.4). The final assay mixture volume was 200 µL, containing 70 nM FL, 12 mM AAPH, and antioxidant [(Trolox, 1–8 µM) or sample (at different concentrations)]. Fluorescence was measured during 137 min in a FLUOstar OPTIMA plate reader (BMG Labtech) with 485 nm excitation and 520 nm emission filters. The equipment was controlled by the FLUOstar Control ver. 1.32 R2 software for fluorescence measurement. Samples were analyzed in triplicate. The final ORAC-FL value was expressed as μmol Trolox equivalents (TE) per μmol peptide.

[2] = biological target: T1, angiotensin-converting enzyme (ACE) (Oryctolagus cuniculus, UniProt P12822); test: ACE-inhibitory activity, fluorescence assay with Abz-Gly-Phe(NO2)-Pro; type: biochemical
T1 sequence (P12822 34-1310): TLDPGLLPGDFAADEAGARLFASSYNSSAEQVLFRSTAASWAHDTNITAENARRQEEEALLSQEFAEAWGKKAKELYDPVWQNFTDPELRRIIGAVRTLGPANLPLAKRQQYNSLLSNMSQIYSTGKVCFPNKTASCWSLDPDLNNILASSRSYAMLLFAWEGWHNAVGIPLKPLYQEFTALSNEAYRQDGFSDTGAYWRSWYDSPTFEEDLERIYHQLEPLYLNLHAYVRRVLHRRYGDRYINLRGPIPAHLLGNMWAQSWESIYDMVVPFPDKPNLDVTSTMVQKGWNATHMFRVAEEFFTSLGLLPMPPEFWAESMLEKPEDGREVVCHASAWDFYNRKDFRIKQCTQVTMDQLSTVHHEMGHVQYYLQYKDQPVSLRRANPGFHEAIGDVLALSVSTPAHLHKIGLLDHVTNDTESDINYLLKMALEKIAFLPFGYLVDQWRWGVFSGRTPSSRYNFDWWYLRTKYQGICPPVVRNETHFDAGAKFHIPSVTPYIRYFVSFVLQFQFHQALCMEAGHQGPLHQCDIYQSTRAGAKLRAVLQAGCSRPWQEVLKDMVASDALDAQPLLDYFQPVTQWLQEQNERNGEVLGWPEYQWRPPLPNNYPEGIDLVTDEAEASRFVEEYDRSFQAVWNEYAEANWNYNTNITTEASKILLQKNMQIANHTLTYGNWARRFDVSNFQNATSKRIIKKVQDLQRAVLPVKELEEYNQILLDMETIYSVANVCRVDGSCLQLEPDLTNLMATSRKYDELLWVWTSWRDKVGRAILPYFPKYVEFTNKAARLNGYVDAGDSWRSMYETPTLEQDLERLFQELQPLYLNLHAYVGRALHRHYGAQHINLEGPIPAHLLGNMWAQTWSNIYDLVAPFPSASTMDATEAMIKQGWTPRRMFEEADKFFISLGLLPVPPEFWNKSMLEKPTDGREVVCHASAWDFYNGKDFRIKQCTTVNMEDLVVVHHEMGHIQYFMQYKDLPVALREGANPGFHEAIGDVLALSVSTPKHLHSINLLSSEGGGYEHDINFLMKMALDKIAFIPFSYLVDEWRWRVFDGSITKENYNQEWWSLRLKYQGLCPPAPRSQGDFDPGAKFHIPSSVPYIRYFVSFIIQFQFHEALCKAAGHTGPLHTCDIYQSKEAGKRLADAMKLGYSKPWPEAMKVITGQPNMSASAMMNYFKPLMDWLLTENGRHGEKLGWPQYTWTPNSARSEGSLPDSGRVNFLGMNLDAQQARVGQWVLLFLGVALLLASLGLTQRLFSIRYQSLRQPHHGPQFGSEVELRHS
Experimental: ACE (1 U/mL) was diluted (0.04 U/mL) in 150 mM Tris buffer containing 0.1 μM ZnCl2 (pH 8.3). Forty microliters of sample (or MilliQ water for blank and control) were added to a black multi-well plate (Porvair, Leatherhead, UK). Then, 40 μL of ACE were added, and the reaction started after the addition of 160 μL of the substrate. The plate was incubated at 37 °C for 30 min, and the fluorescence was measured in a FLUOstar OPTIMA plate reader (BMG Labtechnologies GmbH, Offenburg, Germany) with 320 nm excitation and 420 nm emission filters.

ABTS assay (TEAC) = settings: mean ± SD
Experimental: Antioxidant activity was measured using a previously optimized method with some modifications. A mixture of 7 mM ABTS stock solution and 2.45 mM potassium persulfate was kept in the dark at room temperature for 12-16 h to form the ABTS radical cation (ABTS^•+). The ABTS^•+ solution was diluted in 5 mM of phosphate buffer solution (PBS) (pH 7.4) to an absorbance of 0.70 ± 0.02 at 734 nm at 30 °C. Two mL of diluted ABTS^•+ solution were mixed with 20 μL of sample or Trolox (0–0.015 μmol), and the absorbance was recorded at 734 nm after 10 min incubation at 30 °C. The Trolox equivalent antioxidant capacity (TEAC) value was expressed as μmol TE per μmol peptide. Each sample was analyzed in triplicate.

[3] = parameters: method as in PMID 10908049; settings: BIOPEP-UWM; cited from earlier work
[4] = biological target: opioid, (3H)-naloxone binding; settings: database value; read-out: Opioid agonist IC50, inhibition of (3H)-naloxone binding; cited from earlier work
[5] = biological target: T1, angiotensin-converting enzyme (ACE); settings: BIOPEP-UWM; read-out: ACE inhibitory IC50; cited from earlier work
[6] = parameters: method as in doi:10.1007/s13594-015-0226-5; settings: MBPDB; cited from earlier work
RAW264.7 cells = test: Cell viability (MTT), direct effects, RAW264.7; type: cell-based, mouse; settings: RAW264.7, 1–100 µM, 24 h
Experimental: (§1) Cell viability was determined using the MTT assay. […] Samples were analyzed in triplicate.

macrophages RAW264.7 = settings: RAW264.7 stimulated with 0.25 mM t-BOOH, pre-treated with 25 µM; stimulated cells alone 70.97%
Experimental: The human colorectal adenocarcinoma Caco-2 and the mouse macrophage RAW 264.7 cell lines were obtained from the American Type Culture Collection (ATCC, Rockville, MD, USA). Caco-2 and RAW264.7 cells were grown in High-Glucose DMEM supplemented with 10% (v:v) FBS, 1% (v:v) penicillin/streptomycin/amphotericin B, and 1% (v:v) non-essential amino acids solution. Cells were maintained in plastic 75-cm^2 culture flasks at 37 °C in a humidified incubator containing 5% CO2 and 95% air.
Cells were incubated for 24 h with various concentrations of selected synthetic peptides. To evaluate both the direct and protective effects against oxidative stress, the incubation period was followed by 1.5 h-treatment with culture medium or tert-butyl hydroperoxide (t-BOOH, 1 mM for Caco-2 cells and 0.25 mM for RAW264.7 cells), respectively, and different biomarkers were evaluated.
Cell viability was determined using the MTT assay. Caco-2 and RAW264.7 cells were seeded onto 96-well plates (Corning Costar Corp., Corning, NY, USA) at a density of 1.0 × 10^4 cells/cm^2 and incubated for 9 days and 24 h, respectively. […] The supernatant was aspirated, the formazan crystals were solubilized in DMSO:ethanol (1:1, v:v), and the absorbance was measured at 570 nm in a FLUOstar OPTIMA plate reader (BMG Labtech). Results were expressed as percentage of the control, considered as 100%. Samples were analyzed in triplicate.

Caco-2 cells = test: Cell viability (MTT), direct effects, Caco-2; type: cell-based, human; settings: Caco-2, 1–100 µM, 24 h
Experimental: as §1

mucin secretion = settings: MBPDB; cited from earlier work
murine splenocytes = test system: murine splenocytes; parameters: method as in doi:10.1016/j.idairyj.2010.02.013; settings: MBPDB; cited from earlier work
[7] = biological target: dipeptidyl peptidase IV (DPP-IV); settings: MBPDB; read-out: Antidiabetic IC50, DPP-IV inhibition; cited from earlier work
[8] = highest peptide concentration analyzed 1000 µM, read-out: ACE Inhibitory Activity (IC50-µM), symbol

| Molecule | Antioxidant Activity ORAC [1] | IC50 [2, 8] | Antioxidant Activity TEAC (ABTS assay (TEAC)) | IC50 [4] | IC50 [5] | other results |
| --- | --- | --- | --- | --- | --- | --- |
| C[C@@H](O)[C@H](NC(=O)[C@H](Cc1c[nH]c2ccccc12)NC(=O)[C@@H]1CCCN1)C(=O)O [PWT] (H-Pro-Trp-Thr-OH; N-terminus and C-terminus assumed) | 2.15 ± 0.07 µmol TE/µmol peptide | > 1000 µM | 0.73 ± 0.07 µmol TE/µmol peptide |  |  | Linoleic acid peroxidation (antioxidant) [3]: Inhibition of linoleic acid peroxidation * |
| CC(C)C[C@H](NC(=O)CNC(=O)[C@@H](N)Cc1ccc(O)cc1)C(=O)N[C@@H](Cc1ccccc1)C(=O)O [YGLF] (H-YGLF-OH; N-terminus and C-terminus assumed) | 0.89 ± 0.01 µmol TE/µmol peptide | > 1000 µM | 2.08 ± 0.06 µmol TE/µmol peptide | 300 µM | 733 µM |  |
| CC(C)C[C@H](NC(=O)[C@H](CC(C)C)NC(=O)[C@@H](N)Cc1ccc(O)cc1)C(=O)O [YLL] (H-Tyr-Leu-Leu-OH; N-terminus and C-terminus assumed) | 0.78 ± 0.03 µmol TE/µmol peptide |  | 2.55 ± 0.29 µmol TE/µmol peptide |  |  | IC50 ([2]; mean ± SD, read-out: ACE Inhibitory Activity (IC50-µM)): 518.5 ± 3.5 µM; FRAP [6]: FRAP = 81.76 mmol Fe/mol peptide ** |
| C[C@@H](O)[C@H](NC(=O)[C@H](Cc1c[nH]c2ccccc12)NC(=O)[C@@H]1CCCN1C(=O)[C@@H](N)Cc1ccc(O)cc1)C(=O)O [YPWT] (H-YPWT-OH) |  | > 1000 µM |  |  |  | Cell viability, direct effect (RAW264.7 cells): did not evoke changes in cell viability; Percentage of viable cells (% control) (macrophages RAW264.7): 79.58%; Cell viability, direct effect (Caco-2 cells): did not evoke changes in cell viability |
| YLLF (UniProt P02754 118-121, looked up, fragment) [synthetic peptide, β-Lg f(102–105)] | 0.91 ± 0.04 µmol TE/µmol peptide |  | 1.96 ± 0.30 µmol TE/µmol peptide | 160 µM | 172 µM | Mucin secretion (opioid agonist) (mucin secretion): Stimulation of mucin secretion **; Stimulation of murine splenocytes (listed as cytotoxic) (murine splenocytes): Stimulation of murine splenocytes ** |
| YPFPGPIPN | 1.26 ± 0.06 µmol TE/µmol peptide |  | 1.22 ± 0.17 µmol TE/µmol peptide |  |  | IC50 [7]: 6.7 µM |
